Reference: ChEMBL document CHEMBL5634158, “From garden to lab: C-3 chemical modifications of tomatidine unveil broad-spectrum ATP synthase inhibitors to combat bacterial resistance” (Eur J Med Chem, 2023)
Converted amounts (≈) assume the structure as drawn.

Columns and labels:
[1] = test system: Escherichia coli; assay: Antibacterial activity against antibiotic resistant Escherichia coli producing extended spectrum beta-lactamase CTX-M-15 assessed as reduction in microbial growth incubated for 20 hrs under aerobic condition by CLSI based broth microdilution method; assay type: functional
[2] = test system: Escherichia coli; assay: Antibacterial activity against antibiotic susceptible Escherichia coli producing extended spectrum beta-lactamase KPC assessed as reduction in microbial growth incubated for 20 hrs under aerobic condition by CLSI based broth microdilution method; assay type: functional
[3] = test system: Escherichia coli; assay: Antibacterial activity against NDM1-producing carbapenem/antibiotic resistant Escherichia coli ATCC BAA-2471 assessed as reduction in microbial growth incubated for 20 hrs under aerobic condition by CLSI based broth microdilution method; assay type: functional
[4] = test system: Staphylococcus aureus; assay: Antibacterial activity against antibiotic resitant/methicillin resistant Staphylococcus aureus ATCC 700699/Mu50 assessed as reduction in microbial growth incubated for 20 hrs under aerobic condition by CLSI based broth microdilution method; assay type: functional
[5] = test system: Escherichia coli; assay: Antibacterial activity against antibiotic susceptible Escherichia coli producing extended spectrum beta-lactamase CTX-M-15 assessed as reduction in microbial growth incubated for 20 hrs under aerobic condition by CLSI based broth microdilution method; assay type: functional
[6] = test system: Escherichia coli; assay: Antibacterial activity against antibiotic/colistin resistant Escherichia coli harboring mcr-1 gene assessed as reduction in microbial growth incubated for 20 hrs under aerobic condition by CLSI based broth microdilution method; assay type: functional
[7] = test system: Staphylococcus aureus; assay: Antibacterial activity against antibiotic susceptible Staphylococcus aureus ATCC 29213 assessed as reduction in microbial growth incubated for 20 hrs under aerobic condition by CLSI based broth microdilution method; assay type: functional
[8] = test system: Staphylococcus aureus; assay: Antibacterial activity against antibiotic resistant methicillin resistant Staphylococcus aureus ATCC BAA-41/USA-100 assessed as reduction in microbial growth incubated for 20 hrs under aerobic condition by CLSI based broth microdilution method; assay type: functional
[9] = test system: Escherichia coli; assay: Antibacterial activity against antibiotic susceptible Escherichia coli ATCC 25922 assessed as reduction in microbial growth incubated for 20 hrs under aerobic condition by CLSI based broth microdilution method; assay type: functional
[10] = test system: Staphylococcus aureus; assay: Antibacterial activity against antibiotic resistant Staphylococcus aureus ATCC 29213 hemB SCV assessed as reduction in microbial growth incubated for 20 hrs under aerobic condition by CLSI based broth microdilution method; assay type: functional
[11] = test system: Escherichia coli; assay: Antibacterial activity against NDM1-producing carbapenem resistant/antibiotic susceptible Escherichia coli ATCC BAA-2471 assessed as reduction in microbial growth incubated for 20 hrs under aerobic condition by CLSI based broth microdilution method; assay type: functional, organism-based
[12] = test system: Staphylococcus aureus; assay: Antibacterial activity against Staphylococcus aureus ATCC 29213 hemB SCV assessed as reduction in microbial growth incubated for 20 hrs under aerobic condition by CLSI based broth microdilution method; assay type: functional
[13] = test system: Staphylococcus aureus; assay: Antibacterial activity against Staphylococcus aureus ATCC 29213 assessed as reduction in microbial growth incubated for 20 hrs under aerobic condition by CLSI based broth microdilution method; assay type: functional
[14] = test system: Staphylococcus aureus; assay: Antibacterial activity against Staphylococcus aureus ATCC 29213 SCV assessed as reduction in microbial growth by CLSI based broth microdilution method; assay type: functional
[15] = test system: Staphylococcus aureus; assay: Antibacterial activity against wild type Staphylococcus aureus ATCC 29213 assessed as reduction in microbial growth by CLSI based broth microdilution method; assay type: functional
[16] = test system: Escherichia coli; assay: Antibacterial activity against Escherichia coli ATCC 25922 assessed as reduction in microbial growth incubated for 20 hrs under aerobic condition by CLSI based broth microdilution method; assay type: functional
[17] = test system: Staphylococcus aureus; assay: microbe, parasite or virus in culture; conditions: ATCC 700699/Mu50, 20 h
Description: Antibacterial activity against antibiotic intermediately resitant/methicillin resistant Staphylococcus aureus ATCC 700699/Mu50 assessed as reduction in microbial growth incubated for 20 hrs under aerobic condition by CLSI based broth microdilution method

[18] = test system: Escherichia coli; assay: Antibacterial activity against Escherichia coli ATCC 25922 assessed as fold decrease in MIC for 20 hrs under aerobic condition by CLSI based broth microdilution method; assay type: functional
[19] = test system: Escherichia coli; assay: Antibacterial activity against antibiotic susceptible /colistin resistant Escherichia coli harboring mcr-1 gene assessed as reduction in microbial growth incubated for 20 hrs under aerobic condition by CLSI based broth microdilution method; assay type: functional
[20] = test system: Escherichia coli; assay: microbe, parasite or virus in culture; conditions: 20 h
Description: Antibacterial activity against antibiotic resistant Escherichia coli producing extended spectrum beta-lactamase KPC assessed as reduction in microbial growth incubated for 20 hrs under aerobic condition by CLSI based broth microdilution method

[21] = test system: Staphylococcus aureus; assay: Antibacterial activity against antibiotic susceptible Staphylococcus aureus ATCC 29213 hemB SCV assessed as reduction in microbial growth incubated for 20 hrs under aerobic condition by CLSI based broth microdilution method; assay type: functional
[22] = test system: Staphylococcus aureus; assay: Antibacterial activity against methicillin resistant Staphylococcus aureus ATCC BAA-41/USA-100 assessed as reduction in microbial growth incubated for 20 hrs under aerobic condition by CLSI based broth microdilution method; assay type: functional
[23] = test system: Escherichia coli; assay: Antibacterial activity against Escherichia coli producing extended spectrum beta-lactamase CTX-M-15 assessed as reduction in microbial growth incubated for 20 hrs under aerobic condition by CLSI based broth microdilution method; assay type: functional
[24] = test system: Escherichia coli; assay: Antibacterial activity against colistin resistant Escherichia coli harboring mcr-1 gene assessed as reduction in microbial growth incubated for 20 hrs under aerobic condition by CLSI based broth microdilution method; assay type: functional
[25] = Inhibition of Staphylococcus aureus ATCC 29213 ATP synthase activity preincubated for 30 mins followed by NADH/ADP addition and measured after 60 mins by luciferin/luciferase luminescence assay
[26] = test system: Escherichia coli; assay: Antibacterial activity against Escherichia coli MC4100 harbouring lptD mutant assessed as reduction in bacterial growth by CLSI based broth microdilution method; assay type: functional
[27] = test system: Escherichia coli; assay: Antibacterial activity against NDM1-producing carbapenem-resistant Escherichia coli ATCC BAA-2471 assessed as reduction in microbial growth incubated for 20 hrs under aerobic condition by CLSI based broth microdilution method; assay type: functional
[28] = Inhibition of Escherichia coli ATCC 25922 ATP synthase activity preincubated for 30 mins followed by NADH/ADP addition and measured after 60 mins by luciferin/luciferase luminescence assay
[29] = test system: Staphylococcus aureus; assay: Antibacterial activity against methicillin resistant Staphylococcus aureus ATCC 700699/Mu50 assessed as reduction in microbial growth incubated for 20 hrs under aerobic condition by CLSI based broth microdilution method; assay type: functional
[30] = test system: Escherichia coli; assay: Antibacterial activity against Escherichia coli MC4100 assessed as reduction in bacterial growth by CLSI based broth microdilution method; assay type: functional
[31] = test system: Escherichia coli; assay: Antibacterial activity against Escherichia coli MC4100 harbouring acrAB mutant assessed as reduction in bacterial growth by CLSI based broth microdilution method; assay type: functional
[32] = test system: Escherichia coli; assay: Antibacterial activity against Escherichia coli producing extended spectrum beta-lactamase KPC assessed as reduction in microbial growth incubated for 20 hrs under aerobic condition by CLSI based broth microdilution method; assay type: functional
[33] = Inhibition of mitochondrial ATP synthase in human HepG2 cells preincubated for 30 mins followed by NADH/ADP addition and measured after 60 mins by luminescence assay; assay type: cell-based

Row | Compound | MIC [12] [µg/mL] | MIC [13] [µg/mL] | MIC [16] [µg/mL] | MIC [26] [µg/mL] | IC50 [28] [nM] | MIC [30] [µg/mL] | MIC [31] [µg/mL] | further results
1 | NC[C@H]1O[C@H](O[C@H]2[C@H](O)[C@@H](O[C@H]3O[C@H](CO)[C@@H](O)[C@H](N)[C@H]3O)[C@H](N)C[C@@H]2N)[C@H](N)C[C@@H]1O [TOBRAMYCIN] |  |  |  |  |  |  |  | MIC [1]: 64 µg/mL; MIC [2]: 0.5 µg/mL; MIC [3]: 64 µg/mL; MIC [4]: > 64 µg/mL; MIC [5]: ≤ 0.03 µg/mL; MIC [6]: 32 µg/mL; MIC [7]: 0.5 µg/mL; MIC [8]: > 64 µg/mL; MIC [9]: 0.24 µg/mL; MIC [10]: 16 µg/mL
2 | COLISTIN |  |  |  |  |  |  |  | MIC [11]: 1 µg/mL; MIC [2]: 0.5 µg/mL; MIC [6]: 32 µg/mL; MIC [9]: 1 µg/mL
3 | C[C@H]1CC[C@]2(NC1)O[C@H]1C[C@H]3[C@@H]4CC[C@H]5C[C@@H](O)CC[C@]5(C)[C@H]4CC[C@]3(C)[C@H]1[C@@H]2C [TOMATIDINE] | 0.06 | > 64 | > 128 |  |  |  |  | MIC [14]: 0.06 µg/mL; MIC [15]: > 64 µg/mL
4 | CN[C@H](CC(C)C)C(=O)N[C@H]1C(=O)N[C@@H](CC(N)=O)C(=O)N[C@H]2C(=O)N[C@H]3C(=O)N[C@H](C(=O)N[C@H](C(=O)O)c4cc(O)cc(O)c4-c4cc3ccc4O)[C@H](O)c3ccc(c(Cl)c3)Oc3cc2cc(c3O[C@@H]2O[C@H](CO)[C@@H](O)[C@H](O)[C@H]2O[C@H]2C[C@](C)(N)[C@H](O)[C@H](C)O2)Oc2ccc(cc2Cl)[C@H]1O [VANCOMYCIN] |  |  |  |  |  |  |  | MIC [17]: 8 µg/mL (≈ 5.52 µM)
5 | C[C@H]1CC[C@]2(NC1)O[C@H]1C[C@H]3[C@@H]4CC[C@H]5CC(NC[C@@H](N)Cc6ccc(Cl)cc6)CC[C@]5(C)[C@H]4CC[C@]3(C)[C@H]1[C@@H]2C (mixture of isomers) | ≤ 0.25 | 2 | 8 |  |  |  |  | fold change (FC) [18]: 2
6 | C[C@H]1CC[C@]2(NC1)O[C@H]1C[C@H]3[C@@H]4CC[C@H]5CC(NC[C@@H](N)Cc6ccc(Br)cc6)CC[C@]5(C)[C@H]4CC[C@]3(C)[C@H]1[C@@H]2C (stereo partly drawn) | ≤ 0.25 | 2 | 8 |  |  |  |  | fold change (FC) [18]: 2
7 | C[C@@H](O)[C@H]1C(=O)N2C(C(=O)O)=C(S[C@@H]3CN[C@H](C(=O)N(C)C)C3)[C@H](C)[C@H]12 [MEROPENEM] |  |  |  |  |  |  |  | MIC [19]: ≤ 0.03 µg/mL; MIC [3]: > 16 µg/mL; MIC [4]: > 16 µg/mL; MIC [20]: 8 µg/mL (≈ 20.9 µM); MIC [7]: 0.12 µg/mL; MIC [8]: > 16 µg/mL; MIC [21]: 0.06 µg/mL; MIC [9]: ≤ 0.03 µg/mL
8 | C[C@H]1CC[C@]2(NC1)O[C@H]1C[C@H]3[C@@H]4CC[C@H]5CC(NC[C@@H](N)Cc6ccc(Cl)c(Cl)c6)CC[C@]5(C)[C@H]4CC[C@]3(C)[C@H]1[C@@H]2C (mixture of isomers) | 0.5 | 1 | 4 | 2 | 1950 | 8 | 4 | MIC [22]: 2 µg/mL; MIC [23]: 4 µg/mL; MIC [24]: 8 µg/mL; IC50 [25]: 830 nM; MIC [27]: 8 µg/mL; MIC [29]: 1 µg/mL; MIC [32]: 8 µg/mL; IC50 [33]: 13900 nM
9 | C[C@H]1CC[C@]2(NC1)O[C@H]1C[C@H]3[C@@H]4CC[C@H]5CC(NCCN)CC[C@]5(C)[C@H]4CC[C@]3(C)[C@H]1[C@@H]2C (stereo partly drawn) | 0.006 | 8 | 32 | 0.5 (≈ 1.09 µM) | 1300 | 16 (≈ 35 µM) | 8 (≈ 17.5 µM) | 
10 | C[C@H]1CC[C@]2(NC1)O[C@H]1C[C@H]3[C@@H]4CC[C@H]5CC(NC[C@@H](N)Cc6ccc7ccccc7c6)CC[C@]5(C)[C@H]4CC[C@]3(C)[C@H]1[C@@H]2C (mixture of isomers) |  | 1 | 8 | 8 | 2000 | 16 | 4 | 
11 | C[C@H]1CC[C@]2(NC1)O[C@H]1C[C@H]3[C@@H]4CC[C@H]5CC(NC[C@@H](N)Cc6ccccc6)CC[C@]5(C)[C@H]4CC[C@]3(C)[C@H]1[C@@H]2C (mixture of isomers) |  | 4 | 32 | 4 | 1300 | 32 | 8 | 
12 | Cc1onc(-c2ccccc2)c1C(=O)N[C@@H]1C(=O)N2[C@@H]1SC(C)(C)[C@@H]2C(=O)O [OXACILLIN] |  |  |  |  |  |  |  | MIC [4]: > 128 µg/mL; MIC [7]: 0.24 µg/mL; MIC [8]: > 128 µg/mL; MIC [21]: 0.12 µg/mL
13 | C[C@H]1CC[C@]2(NC1)O[C@H]1C[C@H]3[C@@H]4CC[C@H]5CC(NC[C@@H](N)Cc6c[nH]c7ccccc67)CC[C@]5(C)[C@H]4CC[C@]3(C)[C@H]1[C@@H]2C (mixture of isomers) |  | 2 | 8 | 2 | 1900 | 16 | 4 | 
14 | O=[N+]([O-])c1ccc(Cl)c2nonc12 |  |  |  |  | 3940 |  |  | IC50 [25]: 1700 nM
15 | CC(C)(O/N=C(\C(=O)N[C@@H]1C(=O)N2C(C(=O)[O-])=C(C[n+]3ccccc3)CS[C@H]12)c1csc(N)n1)C(=O)O [CEFTAZIDIME] |  |  |  |  |  |  |  | MIC [1]: > 32 µg/mL; MIC [19]: 0.25 µg/mL; MIC [3]: > 32 µg/mL; MIC [5]: 1 µg/mL; MIC [20]: > 32 µg/mL; MIC [9]: 0.25 µg/mL
16 | C[C@H]1CC[C@]2(NC1)O[C@H]1C[C@H]3[C@@H]4CC[C@H]5CC(NCCN6CCOCC6)CC[C@]5(C)[C@H]4CC[C@]3(C)[C@H]1[C@@H]2C (mixture of isomers) |  | 64 | > 128 | 64 | 6500 | > 128 | 128 | 
17 | C[C@H]1CC[C@]2(NC1)O[C@H]1C[C@H]3[C@@H]4CC[C@H]5CC(NC[C@@H](N)Cc6ccc(-c7ccccc7)cc6)CC[C@]5(C)[C@H]4CC[C@]3(C)[C@H]1[C@@H]2C (mixture of isomers) |  | 2 | 8 | 2 | 3400 | 8 | 8 | 
18 | C[C@H]1CC[C@]2(NC1)O[C@H]1C[C@H]3[C@@H]4CC[C@H]5CC(NC[C@@H](N)Cc6ccc(I)cc6)CC[C@]5(C)[C@H]4CC[C@]3(C)[C@H]1[C@@H]2C (mixture of isomers) | ≤ 0.25 | 2 | 4 | 2 | 1500 | 8 | 4 | fold change (FC) [18]: 2
